These results are taken from patent publication US11976038B1 (priority 2023, dated 2024).

Read-outs that look alike come from different tables or passages of the source.

Data set [1] is classed as physicochemical. The procedure: An appropriate amount of pure product of Embodiment 1 (about 50 mg) was weighed into a small aluminium box, and the weight of the sample was recorded after equilibration. For a thermogravimetric equipment, the temperature was selected to be 0° C. to 500° C., the heating rate to be 20° C./min, and the nitrogen flow rate to be 100 mL/min, and a thermogravimetric change curve was recorded. The initial reaction temperature was 300° C. according to a baseline extrapolation method. […] Curves A and B in FIG. 2 represent the rate of mass change and the mass change with increasing temperature, respectively.

The conditions of data set [2]: background statement; cited from earlier work.
The conditions of data set [3]: background statement; cited from earlier work. The source holds these as a separate data set.
For data set [4] the following is noted: corn oil, 200 ppm; for Conjugated diene value / Peroxide value / Acid value: 60° C., after 6 days; for Conjugated diene value: absorbance 232 nm.
The conditions of data set [5]: corn oil, 200 ppm, oxidation induction time at 20° C. calculated from 100-130° C.
Where [6] appears, read: listed as Pure product of Comparative Example 4.
The mark [7] stands for this setting: listed as Pure product of Comparative Example 5.

In the case of `Oc1ccc(C=Cc2cc(O)cc(O)c2)cc1` [Resveratrol, 3, 4′, 5-trihydroxystilbene], the “initial reaction temperature (thermal stability temperature)” value in data set [1] worked out at 290 °C. In addition, the solubility in oil in data set [2] was 0.98 µg/g. Further, the oral bioavailability in data set [3] is reported as < 1%.
In data set [4] (setting [6]), “resveratrol conjugated linoleate [Comparative Example 4]” had a Conjugated diene value of 3.60 and a Peroxide value of 27 meq/kg. Also, the Shelf life in data set [5] (setting [6]) is 71.4 days.
“resveratrol conjugated linoleate [Comparative Example 5]” gave an Acid value in data set [4] of 0.60 mgKOH/g. For the same compound, in data set [4] (setting [7]), the Conjugated diene value is on record as 3.65 and the Peroxide value is given as 27.5 meq/kg. Also, in data set [5] (setting [7]), the Shelf life is 71.3 days.
For the compound “resveratrol nervonic acid ester [Embodiment 1]”, the “antioxidant activity (DPPH radical scavenging activity)” value (10 mg in 1 mL 80% methanol, 30 min dark, 517 nm) came to 90.00%. In addition, the “antioxidant activity relative to resveratrol” value (DPPH, ratio to resveratrol) is 1.03 times. Moreover, in data set [4] (60° C., 0, 1, 3, 6 days), the “acid value versus resveratrol and blank control (FIG. 4)” value was “basically lower than those of resveratrol and blank control”; the “conjugated diene value versus resveratrol and blank control (FIG. 5)” value is “basically lower than those of resveratrol and blank control”; the “peroxide value versus resveratrol and blank control (FIG. 3)” value is “basically lower than those of resveratrol and blank control”. Moreover, in data set [4], the Acid value amounted to 0.55 mgKOH/g, the Peroxide value was 26.5 meq/kg and the Conjugated diene value turned out to be 3.33. Further, the “initial reaction temperature (thermal stability temperature)” value in data set [1] came to 300 °C. The Shelf life in data set [5] was 78.2 days.
